Test results reported in US20040121965A1, “Method of treating resistant tumors” (Wyeth Holdings Corporation, priority 2002, published 2004).
Like-named read-outs stand apart in the source and are kept apart here.

Assays:
KB-3-1 = assay: Cell survival assay (SRB), KB-3-1; assay type: cell-based, human
Text: Cells lines with previously known mechanisms of resistance. […] Res. 8: 207-218,1996); KB-3-1 (parental derived from an epidermoid carcinoma), KB-8.5, KB-V1 (Akiyama S-I, Fojo A, Hanover J A, Pastan I, Gottesman M M. Isolation and genetic characterization of human KB cell lines resistant to multiple drugs. Somatic Cell Mol. Gen., 11: 117-126,1985; Shen D-W, Cardarelli C, Hwang J, Cornwell M, Richert N, Ishii S, Pastan I, Gottesman MM. […] J. Biol. Chem., 261: 7762-7770, 1986); and HL-60 (parental derived from human leukemia) and HL60/AR (McGrath T., Center M. S. Adriamycin resistance in HL60 cells in the absence of detectable P-glycoprotein. Biochem. Res. Commun., 145:1171-1176,1987); A549 and A549.EpoB40 (He L., Yang C.-P.H., Horwitz S. B. Mutations in p-tubulin map to domains involved in regulation of microtubule stability in epothilone-resistant cell lines. Molecular Cancer Therapeutics. 1: 3-10, 2001). HCT-15 human colon carcinoma and DLD-1 human colon carcinoma are obtained from American Tissue Culture Collection. The MX-1W carcinoma is a Wyeth variant orginally obtained as MX-1 breast carcinoma from the National Cancer Institute. Cell lines selected for resistance to Representative Example 129. KB-3-1 cells are selected for resistance to Example 129 by chronically exposing cells to increasing concentrations of Example 129.
2.2. Cell Survival Assay: Standard Pharmacological Test Procedure. The concentration of candidate inhibitor required to inhibit 50% of cell growth (IC50) is done according to previously reported methods. […] Compounds are serially diluted into media as 2× stocks and 100 μl added to cells in duplicate. Compounds are incubated with cells for 3 days. At the end of the incubation period the sulforhodamine B (SRB) assay, which measures protein content as an assessment of cell survival, is performed as described previously (Skehan P, Storeng R, Scudiero D, Monks A, McMahon J, Vistica D, Warren J T, Bokesch H, Kenney S, Boyd MR. New calorimetric cytotoxicity assay for anticancer-drug screening. J Natl Cancer Inst 1990 Jul 4;82(13):1107-12) with some modification as follows. For KB-3-1 cells with 20% FCS, media is gently decanted and replaced with 200 μl of serum-free media mixed with cold 50% TCA for a final concentration of 10% TCA. The plates are incubated for 1 hr at 4° C., followed by washing 5 times in cold distilled water, then air dried overnight. The fixed cells are stained for 10 min with 80 μl of 0.04% SRB solution prepared in 1% glacial acetic acid. Stain is discarded and plates washed 5 times in 1% glacial acetic acid, then air-dried until completely dry. Stained cell product is dissolved in 150 μl of 10 mM Trizma Base and placed on a shaker for 20 minutes until fully dissolved. Absorbance is read on a Victor V multi-label plate reader (Perkin Elmer, Gaithersburg, Md.).

KB-V1 (MDR1++) = assay: Cell survival assay (SRB), KB-V1 (MDR1++); settings: for IC50: Homo sapiens
KB-8-5 (MDR1+) = assay: Cell survival assay (SRB), KB-8-5 (MDR1+); settings: for IC50: Homo sapiens
[1] = Homo sapiens, KB 3-1, KB-3-1 cells (paclitaxel-sensitive parent), read-out: In vitro IC50 (nM) KB-3-1
[2] = read-out: In vitro IC50 (nM) KBV1
[3] = MDR1, read-out: In vitro IC50 (nM) KB85

CCOC(=O)/C(C)=C/C(C(C)C)N(C)C(=O)[C@@H](NC(=O)[C@@H](NC)C(C)(C)c1ccccc1)[C@H](C)O (stereo in doubt) [Example 85, N,β,β-trimethyl-L-phenylalanyl-N^1-[(1R,2E)-4-ethoxy-1-isopropyl-3-methyl-4-oxo-2-butenyl]-N^1-methyl-L-allothreoninamide]
IC50 (KB-3-1; [1]): 115 nM | Ratio KBV1/KB (KB-V1 (MDR1++)): 26.0 | IC50 (KB-V1 (MDR1++); [2]): ≥ 3000 nM | Ratio KB85/KB (KB-8-5 (MDR1+)): 11.5 | IC50 (KB-8-5 (MDR1+); [3]): 1330 nM

CNC(C(=O)N[C@H](C(=O)N(C)[C@H](/C=C(\C)C(=O)O)C(C)C)C(C)(C)C)C1(c2ccccc2)CC1 (stereo in doubt) [Example 142, (2E,4S)-2,5-dimethyl-4-(methyl{3-methyl-N-[(2S)-2-(methylamino)-2-(1-phenylcyclopropyl)acetyl]-L-valyl}amino)hex-2-enoic Acid]
IC50 (KB-3-1; [1]): 227 nM | Ratio KBV1/KB (KB-V1 (MDR1++)): 13.2 | IC50 (KB-V1 (MDR1++); [2]): > 3000 nM | Ratio KB85/KB (KB-8-5 (MDR1+)): 2.2 | IC50 (KB-8-5 (MDR1+); [3]): 513 nM

CNC(C(=O)N[C@H](C(=O)N(C)[C@H](/C=C(\C)C(=O)O)C(C)C)C(C)(C)C)C1(c2ccccc2)CC1 (stereo in doubt) [Example 143, (2E,4S)-2,5-dimethyl-4-(methyl{3-methyl-N-[(2R)-2-(methylamino)-2-(1-phenylcyclopropyl)acetyl]-L-valyl}amino)hex-2-enoic Acid]
IC50 (KB-3-1; [1]): 27 nM | Ratio KBV1/KB (KB-V1 (MDR1++)): 61.6 | IC50 (KB-V1 (MDR1++); [2]): 1660 nM | Ratio KB85/KB (KB-8-5 (MDR1+)): 2.1 | IC50 (KB-8-5 (MDR1+); [3]): 57 nM

COc1ccc(C[C@H]2NC(=O)/C=C/C[C@@H]([C@H](C)[C@H]3O[C@@H]3c3ccccc3)OC(=O)[C@H](CC(C)C)OC(=O)[C@H](C)CNC2=O)cc1Cl [Cryptophycin-1]
IC50 (KB-3-1; KB-3-1 parental, Table 8, read-out: KB-3-1 IC50): 0.0064 ± 0.0045 nM

CCOC(=O)/C(C)=C/[C@H](C(C)C)N(C)C(=O)[C@@H](NC(=O)[C@@H](NC)C(C)(C)c1cccc(Cl)c1)C(C)(C)C [Example 1a, 3-Chloro-N,β,β-trimethyl-L-phenylalanyl-N^1-[(1S,2E)4-ethoxy-1-isopropyl-3-methyl-4-oxo-2-butenyl]-N^1,3-dimethyl-L-valinamide]
IC50 (KB-3-1; [1]): 562 nM | Ratio KBV1/KB (KB-V1 (MDR1++)): 5.3 | IC50 (KB-V1 (MDR1++); [2]): ≥ 3000 nM | Ratio KB85/KB (KB-8-5 (MDR1+)): 3.1 | IC50 (KB-8-5 (MDR1+); [3]): 1740 nM

CN[C@@H](C(=O)N[C@H](C(=O)N(C)[C@H](/C=C(\C)C(=O)O)C(C)C)C(C)(C)C)C(C)(C)c1cccc(Cl)c1 [Example 3, 3-Chloro-N,β,β-trimethyl-D-phenylalanyl-N^1-[(1S,2E)-3-carboxy-1-isopropyl-2-butenyl]-N^1,3-dimethyl-L-valinamide]
IC50 (KB-3-1; [1]): 15.1 nM | Ratio KBV1/KB (KB-V1 (MDR1++)): 76.0 | IC50 (KB-V1 (MDR1++); [2]): 1150 nM | Ratio KB85/KB (KB-8-5 (MDR1+)): 1.3 | IC50 (KB-8-5 (MDR1+); [3]): 20 nM

CN[C@@H](C(=O)N[C@H](C(=O)N(C)[C@H](/C=C(\C)C(=O)O)C(C)C)C(C)(C)C)C(C)(C)c1ccc(Cl)cc1 [Example 6, 4-Chloro-N,β,β-trimethyl-D-phenylalanyl-N^1-[(1S,2E)-3-carboxy-1-isopropyl-2-butenyl]-N^1,3-dimethyl-L-valinamide]
IC50 (KB-3-1; [1]): 8.5 nM | Ratio KBV1/KB (KB-V1 (MDR1++)): 162.4 | IC50 (KB-V1 (MDR1++); [2]): 1380 nM | Ratio KB85/KB (KB-8-5 (MDR1+)): 2.0 | IC50 (KB-8-5 (MDR1+); [3]): 17.4 nM

CCOC(=O)/C(C)=C/[C@H](C(C)C)N(C)C(=O)[C@@H](NC(=O)[C@@H](NC)C(C)(C)c1cccc(C)c1)C(C)(C)C [Example 7a, N,β,β,3-Tetramethyl-L-phenylalanyl-N^1-[(1S,2E)4-ethoxy-1-isopropyl-3-methyl-4-oxo-2-butenyl]-N^1,3-dimethyl-L-valinamide]
IC50 (KB-3-1; [1]): 21.9 nM | Ratio KBV1/KB (KB-V1 (MDR1++)): 110.0 | IC50 (KB-V1 (MDR1++); [2]): 2410 nM | Ratio KB85/KB (KB-8-5 (MDR1+)): 24.0 | IC50 (KB-8-5 (MDR1+); [3]): 525 nM

CCOC(=O)/C(C)=C/[C@H](C(C)C)N(C)C(=O)[C@@H](NC(=O)[C@H](NC)C(C)(C)c1cccc(C)c1)C(C)(C)C [Example 7b, N,β,β,3-tetramethyl-D-phenylalanyl-N^1-[(1S,2E)-4-ethoxy-1-isopropyl-3-methyl4-oxo-2-butenyl]-N^1,3-dimethyl-L-valinamide]
IC50 (KB-3-1; [1]): 263 nM | Ratio KBV1/KB (KB-V1 (MDR1++)): 11.4 | IC50 (KB-V1 (MDR1++); [2]): ≥ 3000 nM | Ratio KB85/KB (KB-8-5 (MDR1+)): 6.5 | IC50 (KB-8-5 (MDR1+); [3]): 1700 nM

CN[C@@H](C(=O)N[C@H](C(=O)N(C)[C@H](/C=C(\C)C(=O)O)C(C)C)C(C)(C)C)C(C)(C)c1cccc(C)c1 [Example 9, N,β,β,3-Tetramethyl-D-phenylalanyl-N^1-[(1S,2E)-3-carboxy-1-isopropyl-2-butenyl]-N^1,3-dimethyl-L-valinamide]
IC50 (KB-3-1; [1]): 7.9 nM | Ratio KBV1/KB (KB-V1 (MDR1++)): 56.5 | IC50 (KB-V1 (MDR1++); [2]): 447 nM | Ratio KB85/KB (KB-8-5 (MDR1+)): 2.5 | IC50 (KB-8-5 (MDR1+); [3]): 19.9 nM

CCOC(=O)/C(C)=C/[C@H](C(C)C)N(C)C(=O)[C@@H](NC(=O)[C@@H](NC)C(C)(C)c1ccc(C)cc1)C(C)(C)C [Example 10a, N,β,β,4-Tetramethyl-L-phenylalanyl-N^1-[(1S,2E)-4-ethoxy-1-isopropyl-3-methyl4-oxo-2-butenyl]-N^1,3-dimethyl-L-valinamide]
IC50 (KB-3-1; [1]): 33.9 nM | Ratio KBV1/KB (KB-V1 (MDR1++)): 52.4 | IC50 (KB-V1 (MDR1++); [2]): 1780 nM | Ratio KB85/KB (KB-8-5 (MDR1+)): 15.5 | IC50 (KB-8-5 (MDR1+); [3]): 525 nM

CCOC(=O)/C(C)=C/[C@H](C(C)C)N(C)C(=O)[C@@H](NC(=O)[C@H](NC)C(C)(C)c1ccc(C)cc1)C(C)(C)C [Example 10b, N,β,β,4-tetramethyl-D-phenylalanyl-N^1-[(1S,2E)-4-ethoxy-1-isopropyl-3-methyl-4-oxo-2-butenyl]-N^1,3-dimethyl-L-valinamide]
IC50 (KB-3-1; [1]): 447 nM | Ratio KBV1/KB (KB-V1 (MDR1++)): 6.7 | IC50 (KB-V1 (MDR1++); [2]): ≥ 3000 nM | Ratio KB85/KB (KB-8-5 (MDR1+)): 3.9 | IC50 (KB-8-5 (MDR1+); [3]): 1740 nM

CN[C@H](C(=O)N[C@H](C(=O)N(C)[C@H](/C=C(\C)C(=O)O)C(C)C)C(C)(C)C)C(C)(C)c1ccc(C)cc1 [Example 11, N,β,β,4-Tetramethyl-L-phenylalanyl-N^1-[(1S,2E)-3-carboxy-1-isopropyl-2-butenyl]-N^1,3-dimethyl-L-valinamide]
IC50 (KB-3-1; [1]): 1.5 nM | Ratio KBV1/KB (KB-V1 (MDR1++)): 36.7 | IC50 (KB-V1 (MDR1++); [2]): 55 nM | Ratio KB85/KB (KB-8-5 (MDR1+)): 1.7 | IC50 (KB-8-5 (MDR1+); [3]): 2.6 nM

CN[C@@H](C(=O)N[C@H](C(=O)N(C)[C@H](/C=C(\C)C(=O)O)C(C)C)C(C)(C)C)C(C)(C)c1ccc(C)cc1 [Example 12, N,β,β,4-Tetramethyl-D-phenylalanyl-N^1-[(1S,2E)-3-carboxy-1-isopropyl-2-butenyl]-N^1,3-dimethyl-L-valinamide]
IC50 (KB-3-1; [1]): 17 nM | Ratio KBV1/KB (KB-V1 (MDR1++)): 63.1 | IC50 (KB-V1 (MDR1++); [2]): 1070 nM | Ratio KB85/KB (KB-8-5 (MDR1+)): 1.6 | IC50 (KB-8-5 (MDR1+); [3]): 27.5 nM

CCN[C@H](C(=O)N[C@H](C(=O)N(C)[C@H](/C=C(\C)C(=O)O)C(C)C)C(C)(C)C)C(C)(C)c1ccccc1 [Example 32, N-Ethyl-β,β-dimethylphenylalanyl-N^1-[(1S,2E)-3-carboxy-1-isopropyl-2-butenyl]-N^1,3-dimethyl-L-valinamide]
Ratio KBV1/KB (KB-V1 (MDR1++)): 64.5 | Ratio KB85/KB (KB-8-5 (MDR1+)): 2.6

CN[C@H](C(=O)N[C@H](C(=O)N(C)[C@H](/C=C(\C)C(=O)NC(CCSC)C(=O)OC)C(C)C)C(C)(C)C)C(C)(C)c1ccccc1 (stereo partly drawn) [Example 144, 2-(4-{[3,3-Dimethyl-2-(3-methyl-2-methylamino-3-phenyl-butyrylamino)-butyryl]-methyl-amino}-2,5-dimethyl-hex-2-enoylamino)-4-methylsulfanyl-butyric Acid Methyl]
Ratio KB85/KB (KB-8-5 (MDR1+)): 14.9 | IC50 (KB-8-5 (MDR1+); [3]): 55 nM

CCN[C@H](C(=O)N[C@H](C(=O)N(C)[C@H](/C=C(\C)C(=O)O)C(C)C)C(C)(C)C)C(C)(C)c1ccccc1 [Example 151, N-ethyl-β,β-dimethyl-L-phenylalanyl-N^1-[(1S,2E)-3-carboxy-1-isopropylbut-2-enyl]-N^1,3-dimethyl-L-valinamide]
Ratio KBV1/KB (KB-V1 (MDR1++)): 11.3 | Ratio KB85/KB (KB-8-5 (MDR1+)): 1.5

COc1cc2c(c(OC)c1OC)-c1ccc(OC)c(=O)cc1[C@@H](NC(C)=O)CC2 [colchicine, reference compound]
IC50 (KB-V1 (MDR1++); read-out: KB-V1 (MDR1++) IC50, nM (N)): 2440 nM | resistance of KB-8-5 cells (KB-8-5 (MDR1+)): 9.8 fold | IC50 (KB-8-5 (MDR1+); MDR1, read-out: KB-8-5 (MDR1+) IC50, nM (N)): 62.7 nM
